Entries after “also recorded” stand apart in the source; their conditions may differ.
B1: N: Noggin, inhibition of the BMP pathway (protein, UniProt Q13253 28-232, looked up)
Noggin: QHYLHIRPAPSDNLPLVDLIEHPDPIFDPKEKDLNETLLRSLLGGHYDPGFMATSPPEDRPGGGGGAAGGAEDLAELDQLLRQRPSGAMPSEIKGLEFSEGLAQGKKQRLSKKLRRKLQMWLWSQTFCPVLYAWNDLGSRFWPRYVKVGSCFSKRSCSVPEGMVCKPSKSVHLTVLRWRCQRRGGQRCGWIPIQYPIISECKCSC

Tests used:
Assay type in all cases: cell-based, human
CFTR expression = assay: Induction of CFTR expression in hepatoblasts differentiated to cholangiocytes in monolayer (co-culture with OP9-Jag1); conditions: hepatoblasts co-cultured with OP9-Jag1, monolayer, 6 days
Method: OP9 cells were maintained as described previously. 30 Gray irradiated OP9 cells were plated on 2.5% Matrigel coated wells (12 well plates) at a concentration of 200,000 cells per well in alpha-modified minimum essential media (a-MEM) supplemented with glutamine (2 mM) and 20% fetal bovine serum. To induce the cholangiocytes differentiation, day 27 hepatoblasts were dissociated using collagenase type I enzyme and then plated onto the irradiated OP9 cells. The plated cells were cultured in H21 DMEM/Ham's F12 (3:1) media supplemented with 0.1% BSA, 1% vol/vol B27 supplement, ascorbic acid, glutamine, MTG, HGF (20 ng/ml), and epidermal growth factor (EGF, 50 ng/ml) for 4 days. […] To promote the maturation of cholangiocytes that express primary cilia and 4D9, the cells were cultured with DMEM/F12 medium with 0.1% BSA, 1% vol/vol B27 supplement, ascorbic acid, glutamine, MTG, Noggin (50 ng/ml), ROCK inhibitor Y-27632 (5 μM) and Forskolin (FSK, 5 μM) for 12 days. The medium for all steps of cholangiocytes differentiation were changed every two days. The cells were maintained in an ambient O2 incubator.
It has previously been reported that it is possible to generate cholangiocytes that express a number of markers that are indicative of mature cells including the cystic fibrosis transmembrane conductance regulator (CFTR) gene, in which mutations cause cystic fibrosis. The development of mature cholangiocytes was dependent on growth of the cells as cysts in 3D semi-solid cultures consisting of Matrigel and collagen. While this approach yielded relatively mature cholangiocytes, the culture system was not amenable to cell expansion or high throughput screening (e.g., for drugs against cystic fibrosis and other biliary diseases). To improve the differentiation efficiency in monolayer cultures, a panel of cytokines and small molecules that are known to play a role in bile duct development were screened to identify those that would promote the upregulation of CFTR expression as an indication of maturation. Since Notch signaling is required for the production of cholangiocytes, hepatoblasts were cultured on either OP9-Jagl cells or Matrigel for 6 days as previously described. […] To further investigate the role of RA signaling, the effects of specific RA receptor agonists as well as a pan antagonist also were tested.

hPSC-derived hepatocytes [1] = assay: Zonation of hPSC-derived hepatocytes by Wnt manipulation (gene expression); conditions: added days 38 to 56 with T3
Method: Day 27 hepatoblasts were cultured in DMEM/F12 (50:50) with 0.2% BSA, 1% vol/vol ITS-X, ascorbic acid, glutamine, MTG, Dex (40 ng/ml), and OSM (5 ng/ml) for 6 days in monolayer. Day 33 hepatoblasts were dissociated using collagenase type 1 enzyme to make a small cluster of hepatoblasts. The dissociated small clusters were maintained in a low cluster culture dish and cultured in DMEM/F12 (50:50) medium supplemented with 0.2% BSA, 1% vol/vol ITS-X, ascorbic acid, 1% vol/vol chemically defined lipid mix medium (Thermo Fisher Scientific), 0.5% vol/vol B27, glutamine, MTG, Dex (40 ng/ml), and CHIR99021 (1 μM) for 6 days to promote the maturation in 3D aggregates. […]

hPSC-derived hepatocytes [2] = assay: Maturation of hPSC-derived hepatocytes: AFP expression by flow cytometry and qRT-PCR; conditions: added days 38 to 56, aggregates, 40 ng/ml dexamethasone
Method: For these studies, T3 was added to the cultures during the maturation step, from days 38 to 56. During this stage, the cells are cultured as aggregate in the presence of 40 ng/ml dexamethasone, as previously described.

[3] = test system: hPSC-derived cholangiocytes; assay: Flow cytometric screen for DHC5-4D9 reactive mature cholangiocytes in monolayer; conditions: added to cultures for 6 days, flow cytometry
Method: 30 Gray irradiated OP9 cells were plated on 2.5% Matrigel coated wells (12 well plates) at a concentration of 200,000 cells per well in alpha-modified minimum essential media (a-MEM) supplemented with glutamine (2 mM) and 20% fetal bovine serum. To induce the cholangiocytes differentiation, day 27 hepatoblasts were dissociated using collagenase type I enzyme and then plated onto the irradiated OP9 cells. The plated cells were cultured in H21 DMEM/Ham's F12 (3:1) media supplemented with 0.1% BSA, 1% vol/vol B27 supplement, ascorbic acid, glutamine, MTG, HGF (20 ng/ml), and epidermal growth factor (EGF, 50 ng/ml) for 4 days. […] To promote the maturation of cholangiocytes that express primary cilia and 4D9, the cells were cultured with DMEM/F12 medium with 0.1% BSA, 1% vol/vol B27 supplement, ascorbic acid, glutamine, MTG, Noggin (50 ng/ml), ROCK inhibitor Y-27632 (5 μM) and Forskolin (FSK, 5 μM) for 12 days. […]
To identify pathways that promote further maturation of the hPSC-derived cholangiocytes, a screening approach was used based on flow cytometric identification of cells that express the epitope recognized by the antibody DHCS-4D9, which stains mature bile ductal cells (cholangiocytes) in the adult liver. […] Following this maturation step, the cells were harvested and analyzed by flow cytometry for reactivity with DHC5-4D9.

Molecule	CFTR expression (CFTR expression)	also measured
O=C(O)c1ccc2cc(-c3ccc(O)c(C45CC6CC(CC(C6)C4)C5)c3)ccc2c1 [CD437]	induced CFTR expression	–
Cc1c[nH]c(-c2cnc(NCCNc3ccc(C#N)cn3)nc2-c2ccc(Cl)cc2Cl)n1 [CHIR, 6-[[2-[[4-(2,4-Dichlorophenyl)-5-(5-methyl-1H-imidazol-2-yl)-2-pyrimidinyl]amino]ethyl]amino]-3-pyridinecarbonitrile]	–	zonal gene expression of hepatocytes (hPSC-derived hepatocytes [1]): expressed genes associated with Zone 3 hepatocytes
Oc1nc(-c2ccc(C(F)(F)F)cc2)nc2c1CSCC2 [XAV]	–	zonal gene expression of hepatocytes (hPSC-derived hepatocytes [1]): expressed genes associated with Zone 1 hepatocytes
N[C@@H](Cc1cc(I)c(Oc2ccc(O)c(I)c2)c(I)c1)C(=O)O [T3, Triiodothyronine]	–	levels of AFP expression (hPSC-derived hepatocytes [2]): dramatic decrease in the levels of AFP expression; also recorded: significantly lower than the levels observed in cells treated with cAMP
CCCCCCCCc1ccc(-c2ccc(C(=O)O)cc2)cc1 [AC55649]	induced CFTR expression	–
CC1(C)CC=C(C#Cc2ccccc2)c2cc(/C=C/c3ccc(C(=O)O)cc3)ccc21 [BMS493]	inhibited the induction of CFTR expression	–
AM580	induced CFTR expression	–
B1	–	development of DHC5-4D9 cells [3]: promoted the development of DHC5-4D9 cells

From patent publication US20220233605A1, “METHODS OF MAKING AND USING LIVER CELLS” (University Health Network, priority 2019, published 2022)
